Test results reported in ChEMBL document CHEMBL1201862, “PubChem BioAssay data set” (2004).
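How tested: cells in 96-well plates exposed to compound for 48 hours at five concentrations. GI50 = concentration required for 50% inhibition of growth.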 The source made the active and inactive calls. Rule as the data show it: active = GI50 up to about 1.1 µM and inactive = higher.

Experiments:
Assay in all cases: DTP human tumour cell line panel, 48 h
SF-268 = test system: SF-268
SK-MEL-5 = test system: SK-MEL-5
LOX IMVI = test system: LOX IMVI
DLD-1 = test system: DLD-1
COLO 205 = test system: COLO 205
SR = test system: SR
EKVX = test system: EKVX
A549 = test system: A549
MOLT-4 = test system: MOLT-4
NCI-H226 = test system: NCI-H226
DMS-114 = test system: DMS-114
TK-10 = test system: TK-10
LXFL 529 = test system: LXFL 529

Cc1cc(=O)c2c(O)cc3c(c2o1)CC=C(COC1OC(COC2OC(CO)C(O)C(O)C2O)C(O)C(O)C1O)CO3 (stereo unspecified)
GI50 (SF-268): > 100 µM (inactive) | GI50 (SK-MEL-5): > 100 µM (inactive) | GI50 (LOX IMVI): > 100 µM (inactive) | GI50 (DLD-1): > 100 µM (inactive) | GI50 (COLO 205): > 100 µM (inactive) | GI50 (SR): > 100 µM (inactive) | GI50 (EKVX): > 100 µM (inactive) | GI50 (A549): > 100 µM (inactive) | GI50 (MOLT-4): > 100 µM (inactive) | GI50 (NCI-H226): > 100 µM (inactive) | GI50 (DMS-114): > 100 µM (inactive) | GI50 (TK-10): > 100 µM (inactive) | GI50 (LXFL 529): > 100 µM (inactive)

COC(=O)C1=C(O)c2cc(OC)c(OC)cc2C(c2ccc(OC)c(OC)c2)C1 (stereo unspecified)
GI50 (SF-268): 69.3 µM (inactive) | GI50 (SK-MEL-5): > 100 µM (inactive) | GI50 (LOX IMVI): 69.5 µM (inactive) | GI50 (DLD-1): 44 µM (inactive) | GI50 (COLO 205): 38.6 µM (inactive) | GI50 (SR): 38.5 µM (inactive) | GI50 (EKVX): > 100 µM (inactive) | GI50 (A549): > 100 µM (inactive) | GI50 (MOLT-4): 88.5 µM (inactive) | GI50 (NCI-H226): > 100 µM (inactive) | GI50 (DMS-114): > 100 µM (inactive) | GI50 (TK-10): > 100 µM (inactive) | GI50 (LXFL 529): 43.3 µM (inactive)

CC#C[P+](c1ccccc1)(c1ccccc1)c1ccccc1
GI50 (SF-268): 2.09 µM (inactive) | GI50 (SK-MEL-5): 2.2 µM (inactive) | GI50 (LOX IMVI): 2 µM (inactive) | GI50 (DLD-1): 2.34 µM (inactive) | GI50 (COLO 205): 1.35 µM (inactive) | GI50 (SR): 2.88 µM (inactive) | GI50 (EKVX): 4.83 µM (inactive) | GI50 (A549): 7.91 µM (inactive) | GI50 (MOLT-4): 0.953 µM (active) | GI50 (NCI-H226): 3.13 µM (inactive) | GI50 (DMS-114): 2.08 µM (inactive) | GI50 (TK-10): 4.09 µM (inactive) | GI50 (LXFL 529): 1.32 µM (inactive)

Cc1ccc(-c2nnc(-c3nn(-c4ccccc4)c4nc5ccccc5nc34)o2)cc1
GI50 (SF-268): 11.1 µM (inactive) | GI50 (SK-MEL-5): 10.9 µM (inactive) | GI50 (LOX IMVI): 15.7 µM (inactive) | GI50 (DLD-1): 16.9 µM (inactive) | GI50 (COLO 205): 47.2 µM (inactive) | GI50 (SR): 9.73 µM (inactive) | GI50 (EKVX): 29.9 µM (inactive) | GI50 (A549): 13.3 µM (inactive) | GI50 (MOLT-4): 16 µM (inactive) | GI50 (NCI-H226): 13.2 µM (inactive) | GI50 (DMS-114): 15.8 µM (inactive) | GI50 (TK-10): 14 µM (inactive) | GI50 (LXFL 529): 10.6 µM (inactive)

CC1(C)CC(=O)C/C(=N/c2ccc([N+](=O)[O-])cc2)C1
GI50 (SF-268): > 100 µM (inactive) | GI50 (SK-MEL-5): > 100 µM (inactive) | GI50 (LOX IMVI): 19.2 µM (inactive) | GI50 (DLD-1): 21.1 µM (inactive) | GI50 (COLO 205): 29.6 µM (inactive) | GI50 (SR): 57 µM (inactive) | GI50 (EKVX): > 100 µM (inactive) | GI50 (A549): > 100 µM (inactive) | GI50 (MOLT-4): 58.6 µM (inactive) | GI50 (NCI-H226): > 100 µM (inactive) | GI50 (DMS-114): 41.4 µM (inactive) | GI50 (TK-10): > 100 µM (inactive) | GI50 (LXFL 529): > 100 µM (inactive)

CC1=NN(C(=O)CC(=O)Nc2ccccc2)C(=O)C1/N=N/c1ccc(S(N)(=O)=O)cc1 (stereo unspecified)
GI50 (SF-268): 80.9 µM (inactive) | GI50 (SK-MEL-5): 36.4 µM (inactive) | GI50 (LOX IMVI): 75.5 µM (inactive) | GI50 (DLD-1): 95.1 µM (inactive) | GI50 (COLO 205): > 100 µM (inactive) | GI50 (SR): 56.9 µM (inactive) | GI50 (EKVX): > 100 µM (inactive) | GI50 (A549): > 100 µM (inactive) | GI50 (MOLT-4): 37.5 µM (inactive) | GI50 (NCI-H226): 39.1 µM (inactive) | GI50 (DMS-114): 63.8 µM (inactive) | GI50 (TK-10): > 100 µM (inactive) | GI50 (LXFL 529): 81.7 µM (inactive)

Nc1ccc(C(=O)NN2C(=O)C(Cl)C2c2ccccc2Cl)cc1 (stereo unspecified)
GI50 (SF-268): 3.84 µM (inactive) | GI50 (SK-MEL-5): 16 µM (inactive) | GI50 (LOX IMVI): 1.41 µM (inactive) | GI50 (DLD-1): 10.8 µM (inactive) | GI50 (COLO 205): 14.6 µM (inactive) | GI50 (SR): 5.45 µM (inactive) | GI50 (EKVX): 17.5 µM (inactive) | GI50 (A549): 14.3 µM (inactive) | GI50 (MOLT-4): 1.59 µM (inactive) | GI50 (NCI-H226): 16.8 µM (inactive) | GI50 (DMS-114): 5.48 µM (inactive) | GI50 (TK-10): 16.5 µM (inactive) | GI50 (LXFL 529): 2.06 µM (inactive)
